Here are results for 18 compounds from patent publication US9980973B2, “Bicyclic heterocycle compounds and their uses in therapy” (ASTEX THERAPEUTICS LIMITED, priority 2012, dated 2018).

Where a name gives a salt, the structure may show the parent alone. Read-outs that look alike come from different tables or passages of the source.

The test system of test [1] is EVSA-T (human breast carcinoma). As to the kind of experiment: Anti-proliferative activity, Alamar Blue assay, EVSA-T. The test is classed as cell-based. The note with it: for EC50: Homo sapiens, EVSA-T.
The target of test [2] is T1, BIR3 domain of human XIAP (Homo sapiens, UniProt P98170).
T1 construct: BIR3 domain of human XIAP (residues 252-350) fused to a His-tag; His-tag (cleaved yes); made in house; host or cells: Escherichia coli
T1 sequence (P98170 252-350): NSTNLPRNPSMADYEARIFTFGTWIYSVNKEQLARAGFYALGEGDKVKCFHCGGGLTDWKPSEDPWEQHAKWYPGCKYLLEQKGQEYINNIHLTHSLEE
Kind of test: XIAP in vitro competitive displacement binding assay (fluorescence polarization). The note with it: for inhibition at 0.04 µM: 1 h, PI at 0.04 μM, read-out: Xiap IC50 or PI μM (PI). (Fluorescence polarisation rises when a labelled molecule tumbles more slowly, as on binding a larger partner.)

The mark [3] stands for this setting: 72 h, EVSA-T cells, 72 hours, Alamar Blue, read-out: EVSA-T prolif.
Where [4] appears, read: read-out: EC50 in EVSA-T cell line assays.

Turning to `C[C@@H]1CN(CC(=O)N2CC(C)(C)c3ncc(Cc4ccc(F)cc4)cc32)[C@@H](CN2C[C@H](C)NC(=O)[C@H]2C)CN1` [Example 48, (3R,6S)-4-{[(2R,5R)-1-(2-(6-[(4-Fluorophenyl)methyl]-3,3-dimethyl-1H,2H,3H-pyrrolo[3,2-b]pyridin-1-yl}-2-oxoethyl)-5-methylpiperazin-2-yl]methyl}-3,6-dimethylpiperazin-2-one, dihydrochloride], the EC50 was 4.3 nM in test [1] (setting [3]) and below 1000 nM in test [1] (setting [4]). Further, in test [2], the inhibition at 0.04 µM came to 49%.

With `C[C@@H]1CN(CC(=O)N2CC(C)(C)c3ncc(Cc4ccc(F)cc4)cc32)[C@@H](CN2CCN(c3ncccn3)C[C@H]2C)CN1` [Example 53, 1-{6-[(4-Fluorophenyl)methyl]-3,3-dimethyl-1H,2H,3H-pyrrolo[3,2-b]pyridin-1-yl}-2-[(2R,5R)-5-methyl-2-{[(2R)-2-methyl-4-(pyrimidin-2-yl)piperazin-1-yl]methyl}piperazin-1-yl]ethan-1-one, dihydrochloride], the EC50 in test [1] (setting [3]) is 0.61 nM; in test [1] (setting [4]), below 1000 nM. Further, the inhibition at 0.04 µM in test [2] is 59%.

`C[C@@H]1CN(CC(=O)N2CC(C)(C)c3ncc(Cc4ccc(F)cc4)cc32)[C@@H](CN2CCCC(F)(F)C2)CN1` [Example 3, 2-[(2R,5R)-2-[(3,3-Difluoropiperidin-1-yl)methyl]-5-methylpiperazin-1-yl]-1-{6-[(4-fluorophenyl)methyl]-3,3-dimethyl-1H,2H,3H-pyrrolo[3,2-b]pyridin-1-yl}ethan-1-one dihydrochloride]: the EC50 in test [1] (setting [3]) is 6.8 nM; in test [1] (setting [4]), below 1000 nM. In addition, the inhibition at 0.04 µM in test [2] worked out at 37%.

`CC1COCCN1C[C@H]1CN[C@H](C)CN1CC(=O)N1CC(C)(C)c2ccc(Cc3ccc(F)cc3)cc21` (stereo partly drawn) [Example 45, 1-{6-[(4-Fluorophenyl)methyl]-3,3-dimethyl-2,3-dihydro-1H-indol-1-yl}-2-[(2R,5R)-5-methyl-2-{[(3R)-3-methylmorpholin-4-yl]methyl}piperazin-1-yl]ethan-1-one, dihydrochloride]: the EC50 in test [1] (setting [3]) is 3.5 nM; in test [1] (setting [4]) it was below 1000 nM. The inhibition at 0.04 µM in test [2] is 52%.

On to `C[C@@H]1CN(CC(=O)N2CC(C)(C)c3ncc(Cc4ccc(F)cc4)cc32)[C@@H](CN2CCOC[C@H]2CF)CN1` [Example 19, 2-[(2R,5R)-2-{[(3S)-3-(Fluoromethyl)morpholin-4-yl]methyl}-5-methylpiperazin-1-yl]-1-{6-[(4-fluorophenyl)methyl]-3,3-dimethyl-1H,2H,3H-pyrrolo[3,2-b]pyridin-1-yl}ethan-1-one dihydrochloride], for which the EC50 was 0.65 nM in test [1] (setting [3]) and below 1000 nM in test [1] (setting [4]). The inhibition at 0.04 µM in test [2] stood at 43%.

In the case of `C[C@@H]1CN(CC(=O)N2CC(C)(C)c3cnc(Cc4ccc(F)cc4F)cc32)[C@@H](CN2CCOC[C@@]2(C)CO)CN1` (single isomer, unassigned) [Example 67, dihydrochloride], the EC50 in test [1] (setting [3]) was 3.7 nM; in test [1] (setting [4]) it was below 1000 nM. For the same compound, the inhibition at 0.04 µM in test [2] came out at 65%.

The IC50 is the concentration that gives 50% inhibition. For the compound `C[C@@H]1CN(CC(=O)N2CC(C)(C)c3ncc(Cc4ccc(F)cc4)cc32)[C@@H](CN2C[C@@H]3C[C@H]2CO3)CN1` [Example 7, 1-{6-[(4-Fluorophenyl)methyl]-3,3-dimethyl-1H,2H,3H-pyrrolo[3,2-b]pyridin-1-yl}-2-[(2R,5R)-5-methyl-2-[(1S,4S)-2-oxa-5-azabicyclo[2.2.1]heptan-5-ylmethyl]piperazin-1-yl]ethan-1-one dihydrochloride], the values for the EC50 in test [1] (setting [3]) and in test [1] (setting [4]) were 6.2 nM and below 1000 nM, respectively. The half-inhibitory concentration (IC50) in test [2] (plain number = IC50, average where more than one data point, read-out: Xiap IC50 or PI μM (IC50)) was 0.16 µM.

Consider `CCCC(F)(F)c1cc2c(cn1)C(C)(C)CN2C(=O)CN1C[C@@H](C)NC[C@@H]1CN1CCOC[C@]1(C)CO` (single isomer, unassigned) [Example 69, dihydrochloride], for which the results for the EC50 in test [1] (setting [3]) and in test [1] (setting [4]) were 5.6 nM and below 1000 nM, respectively. Also, the inhibition at 0.04 µM in test [2] amounted to 71%.

`C[C@@H]1CN(CC(=O)N2CC(C)(C)c3cnc(Cc4ccc(F)cc4F)cc32)[C@@H](CN2CCOC[C@]2(C)CO)CN1` (single isomer, unassigned) [Example 66, dihydrochloride]: the EC50 in test [1] (setting [3]) is 0.8 nM; in test [1] (setting [4]), below 1000 nM. Moreover, the inhibition at 0.04 µM in test [2] turned out to be 78%.

Regarding `C[C@@H]1CN(CC(=O)N2CC(C)(C)c3ncc(Cc4ccccc4)cc32)[C@@H](CN2[C@H](C)COC[C@H]2C)CN1` [Example 29, 1-{6-Benzyl-3,3-dimethyl-1H,2H,3H-pyrrolo[3,2-b]pyridin-1-yl}-2-[(2R,5R)-2-{[(3R,5R)-3,5-dimethylmorpholin-4-yl]methyl}-5-methylpiperazin-1-yl]ethan-1-one dihydrochloride], the EC50 is 0.4 nM in test [1] (setting [3]) and below 1000 nM in test [1] (setting [4]). Moreover, the inhibition at 0.04 µM in test [2] came out at 47%.

With `C[C@@H]1CN(CC(=O)N2CC(C)(C)c3ncc(Cc4ccc(F)cc4F)cc32)[C@@H](CN2CCOC[C@]2(C)CO)CN1` [Example 57, 1-{6-[(2,4-Difluorophenyl)methyl]-3,3-dimethyl-1H,2H,3H-pyrrolo[3,2-b]pyridin-1-yl}-2-[(2R,5R)-2-{[(3S)-3-(hydroxymethyl)-3-methylmorpholin-4-yl]methyl}-5-methylpiperazin-1-yl]ethan-1-one, dihydrochloride], the EC50 was 2.6 nM in test [1] (setting [3]) and below 1000 nM in test [1] (setting [4]). In addition, in test [2], the inhibition at 0.04 µM amounted to 41%.

`CC(=O)N1CCN(C[C@H]2CN[C@H](C)CN2CC(=O)N2CC(C)(C)c3cnc(Cc4ccc(F)cc4)cc32)[C@H](C)C1` [Example 56, 2-[(2R,5R)-2-{[(2R)-4-Acetyl-2-methylpiperazin-1-yl]methyl}-5-methylpiperazin-1-yl]-1-{6-[(4-fluorophenyl)methyl]-3,3-dimethyl-1H,2H,3H-pyrrolo[3,2-c]pyridin-1-yl}ethan-1-one, dihydrochloride]: the figures for the EC50 in test [1] (setting [3]) and in test [1] (setting [4]) were 0.42 nM and below 1000 nM, respectively. Moreover, the inhibition at 0.04 µM in test [2] came to 70%.

On to `C[C@@H]1CN(CC(=O)N2CC(C)(C)c3ncc(Cc4ccc(F)cc4)cc32)[C@@H](CN2C[C@@H](C)N[C@@H](C)C2)CN1` [Example 22, 2-[(2R,5R)-2-{[(3R,5S)-3,5-Dimethylpiperazin-1-yl]methyl}-5-methylpiperazin-1-yl]-1-{6-[(4-fluorophenyl)methyl]-3,3-dimethyl-1H,2H,3H-pyrrolo[3,2-b]pyridin-1-yl}ethan-1-one dihydrochloride], for which the EC50 in test [1] (setting [3]) was 30 nM; in test [1] (setting [4]), below 1000 nM. Besides, in test [2], the inhibition at 0.04 µM was 40%.

In the case of `COC[C@]1(C)COCCN1C[C@H]1CN[C@H](C)CN1CC(=O)N1CC(C)(C)c2cnc(Cc3ccc(F)cc3F)cc21` [Example 97, 1-{6-[(2,4-Difluorophenyl)methyl]-3,3-dimethyl-1H,2H,3H-pyrrolo[3,2-c]pyridin-1-yl}-2-[(2R,5R)-2-{[(3R)-3-(methoxymethyl)-3-methylmorpholin-4-yl]methyl}-5-methylpiperazin-1-yl]ethan-1-one dihydrochloride], the figures for the EC50 in test [1] (setting [3]) and in test [1] (setting [4]) were 2.3 nM and below 1000 nM, respectively. Further, in test [2], the inhibition at 0.04 µM is 44%.

Take `C[C@@H]1CN(CC(=O)N2CC(C)(C)c3ncc(Cc4ccc(F)cc4F)cc32)[C@@H](CN2CCOC[C@@]2(C)CO)CN1` [Example 58, 1-{6-[(2,4-Difluorophenyl)methyl]-3,3-dimethyl-1H,2H,3H-pyrrolo[3,2-b]pyridin-1-yl}-2-[(2R,5R)-2-{[(3R)-3-(hydroxymethyl)-3-methylmorpholin-4-l]methyl}-5-methylpiperazin-1-yl]ethan-1-one, dihydrochloride]: the EC50 in test [1] (setting [3]) is 0.7 nM; in test [1] (setting [4]), below 1000 nM. For the same compound, the inhibition at 0.04 µM in test [2] turned out to be 51%. Also, in test [2] (or at least 50% inhibition of the activity at 0.1 μM, read-out: IC50 in the XIAP assay), the IC50 is below 0.1 µM.

For `C[C@@H]1CN(CC(=O)N2CC(C)(C)c3cc(C#N)c(Cc4ccc(F)cc4)cc32)[C@@H](CN2[C@H](C)COC[C@H]2C)CN1` [Example 92, 1-{2-[(2R,5R)-2-{[(3R,5R)-3,5-Dimethylmorpholin-4-yl]methyl}-5-methylpiperazin-1-yl]acetyl}-6-[(4-fluroophenyl)methyl]-3,3-dimethyl-2,3-dihydro-1H-indole-5-carbonitrile dihydrochloride], the EC50 in test [1] (setting [3]) is 2.7 nM; in test [1] (setting [4]) it was below 1000 nM. Also, the inhibition at 0.04 µM in test [2] worked out at 54%.

As for `C[C@@H]1CN(CC(=O)N2CC(C)(C)c3ncc(Cc4ccc(F)cc4F)cc32)[C@@H](CN2[C@H](C)COC[C@H]2C)CN1` [Example 54, 1-{6-[(2,4-Difluorophenyl)methyl]-3,3-dimethyl-1H,2H,3H-pyrrolo[3,2-b]pyridin-1-yl}-2-[(2R,5R)-2-{[(3R,5R)-3,5-dimethylmorpholin-4-yl]methyl}-5-methylpiperazin-1-yl]ethan-1-one, dihydrochloride], in test [1] (setting [4]), the EC50 was below 1000 nM. Further, the “EVSA-T prolif (% at concentration)” value in test [1] (at 0.001 μM) worked out at 96% at. Further, the inhibition at 0.04 µM in test [2] came to 59%.

On to `COC[C@@H]1COCCN1C[C@H]1CN[C@H](C)CN1CC(=O)N1CC(C)(C)c2cnc(Cc3ccc(F)cc3)cc21` [Example 96, 1-{6-[(4-Fluorophenyl)methyl]-3,3-dimethyl-1H,2H,3H-pyrrolo[3,2-c]pyridin-1-yl}-2-[(2R,5R)-2-{[(3R)-3-(methoxymethyl)morpholin-4-yl]methyl}-5-methylpiperazin-1-yl]ethan-1-one dihydrochloride], for which the EC50 in test [1] (setting [3]) is 1.7 nM; in test [1] (setting [4]), below 1000 nM. The inhibition at 0.04 µM in test [2] turned out to be 49%.
